# From US20230027929A1, “MrgprX2 Antagonists and Uses Thereof” (Dermira, Inc., priority 2019, published 2023)
# Biological target: T1, hMrgpMRGPRX2 (Homo sapiens, UniProt Q96LB1)
# T1 construct: expressed in transfected cells
# T1 sequence (Q96LB1 1-330): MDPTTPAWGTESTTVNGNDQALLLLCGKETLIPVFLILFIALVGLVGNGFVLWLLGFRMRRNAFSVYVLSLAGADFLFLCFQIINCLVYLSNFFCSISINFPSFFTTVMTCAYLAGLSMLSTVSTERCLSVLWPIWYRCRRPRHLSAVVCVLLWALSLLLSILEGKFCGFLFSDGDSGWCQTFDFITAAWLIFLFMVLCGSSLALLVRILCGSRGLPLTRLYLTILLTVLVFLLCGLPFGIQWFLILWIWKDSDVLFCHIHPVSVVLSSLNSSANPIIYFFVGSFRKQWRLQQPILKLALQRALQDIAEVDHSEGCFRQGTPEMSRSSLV
# Assay: FLIPR intracellular calcium mobilization, antagonist activity in recombinant hMrgpMRGPRX2 expressing cells
# Type: cell-based
# Settings: read-out: Human MrgprX2 Antagonist pIC50 (converted)
# Outline: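 Antagonist activity was read as inhibition of intracellular calcium mobilization (FLIPR) in recombinant cells expressing human MrgprX2. Potency was also checked in LAD-2 human mast cells with endogenous receptor, and orthologue activity in cells expressing mouse MrgprB2, mouse MrgprA1, and gerbil, Chinese hamster and cynomolgus orthologues.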
row,Compound,IC50 [nM]
1,CCN(C[C@@H](O)C(F)(F)F)C(=O)Nc1ccc(Oc2ccc(F)cc2F)cn1 [Compound E137],2.09
2,CC1(C)C(C(=O)Nc2ccc(-n3ccc(C#N)n3)cn2)C1(C)C [Compound E088],28.2
3,CCN(C[C@@H](O)C(F)(F)F)C(=O)Nc1ccc(Oc2cccc(F)c2F)cn1 [Compound E120],3.72
4,CC1(C)C(C(=O)Nc2ccc(C#N)cn2)C1(C)C [Compound E206],251
5,CC1(C(=O)Nc2ccc(Oc3ccc(F)c(F)c3)cn2)CCOCC1 [Compound E027],3160
6,CC(C)C(=O)Nc1ccc(Oc2ccc(F)cc2)cn1 [Compound E003],316
7,CC1(C)C(C(=O)Nc2ccc(Oc3ccnc(F)c3)cn2)C1(C)C [Compound E060],3.16
8,CC1(C)CC1C(=O)Nc1ccc(Oc2cc(F)cc(C#N)c2)cn1 (centres unmarked) [Compound E041],158
9,CC1(C)CN(C(=O)Nc2ccc(Oc3ccc(F)c(F)c3)cn2)C1 [Compound E124],3240
10,CC1(C)C(C(=O)Nc2cnc(Oc3cncc(F)c3)cn2)C1(C)C [Compound E222],12.6
11,C[C@@H]1C[C@@H]1C(=O)Nc1ccc(Oc2ccc(F)c(F)c2)cn1 [Compound E048],15.8
12,CC(C)C(=O)Nc1ccc(Oc2ccc(F)c(F)c2)cn1 [Compound E010],39.8
13,N#CC1(C(=O)Nc2ccc(Oc3cc(F)cc(F)c3)cn2)CC1 [Compound E023],3160
14,CC(C)N(C)C(=O)Nc1ccc(Oc2ccc(F)c(F)c2)cn1 [Compound E104],126
15,CCN(C[C@@H](O)C(F)(F)F)C(=O)Nc1ccc(Oc2cc(F)cc(C#N)c2)cn1 [Compound E116],1350
16,"CC1(C)C(C(=O)Nc2cc(C(=O)NCC(F)(F)F)ccn2)C1(C)C [Compound E269, 2-[(2,2,3,3-tetramethylcyclopropanecarbonyl)amino]-N-(2,2,2-trifluoroethyl)pyridine-4-carboxamide]",3160
17,CCN(C[C@@H](O)C(F)(F)F)C(=O)Nc1ccc(Oc2ccc(F)cc2)cn1 [Compound E118],50.1
18,"CC1(C)C(C(=O)Nc2ccc(OCC(F)(F)F)cn2)C1(C)C [Compound E093, 2,2,3,3-tetramethyl-N-[5-(2,2,2-trifluoroethoxy)-2-pyridyl]cyclopropanecarboxamide]",31.6
19,CC(C)C(=O)Nc1ccc(Oc2cc(F)cc(F)c2)cn1 [Compound E008],6.31
20,CC1(C)C(C(=O)Nc2ccc(Oc3cncc(F)c3)cn2)C1(C)C [Compound E0530],2
21,CC(C)C(=O)Nc1ccc(Oc2ccnc(F)c2)cn1 [Compound E022],10000
22,CC1(C)C(C(=O)Nc2ccc(Oc3cn[nH]c3)cn2)C1(C)C [Compound E074],257
23,CC(O)(C(=O)Nc1ccc(Oc2cccc(F)c2)cn1)C(F)(F)F (centres unmarked) [Compound E013],794
24,CC1(C)C(C(=O)Nc2ccc(-n3ccc(F)n3)cn2)C1(C)C [Compound E091],8.13
25,O=C(Nc1ccc(Oc2ccc(F)c(F)c2)cn1)C1CCOC1 (centres unmarked) [Compound E037],6310
26,CC1(C)C(C(=O)Nc2ccc(Oc3ccc(C#N)cc3F)cn2)C1(C)C [Compound E061],20

row,Compound,IC50 [nM]
1,O=C(CC1CCOCC1)Nc1ccc(Oc2ccc(F)c(F)c2)cn1 [Compound E030],7940
2,CCN(CC(C)(C)O)C(=O)Nc1ccc(Oc2ccc(F)c(F)c2)cn1 [Compound E112],155
3,CC1(C)C(C(=O)Nc2ccc(-c3cncc(F)c3)cn2)C1(C)C [Compound E184],70.8
4,"CC(C)C(=O)Nc1cc(Oc2cc(F)cc(F)c2)ccn1 [Compound E143, N-[4-(3,5-difluorophenoxy)-2-pyridyl]-2-methyl-propanamide]",200
5,CC(C)C(=O)Nc1ccc(Oc2ccccc2)cn1 [Compound E002],501
6,CC1(C)C(C(=O)Nc2ccc(Nc3cncc(F)c3)cn2)C1(C)C [Compound E101],912
7,CC1(C)C(C(=O)Nc2cc(C#N)ccn2)C1(C)C [Compound E207],3160
8,CN(C[C@H](O)C(F)(F)F)C(=O)Nc1ccc(Oc2ccc(F)c(F)c2)cn1 [Compound E113],575
9,COCC(C)(C)C(=O)Nc1ccc(Oc2ccc(F)c(F)c2)cn1 [Compound E040],501
10,CC1(C)C(C(=O)Nc2ccc(-n3ccnn3)cn2)C1(C)C [Compound E090],3390
11,CC(C)C(=O)Nc1ccc(OC2CCCC2)cn1 [Compound E084],1580
12,CC1(C)CC1C(=O)Nc1ccc(Oc2cncc(F)c2)cn1 (centres unmarked) [Compound E052],501
13,O=C(Nc1ccc(Oc2ccc(F)c(F)c2)cn1)[C@H]1C[C@H]1C(F)(F)F [Compound E045],20
14,Cc1nc(NC(=O)N(C)C[C@@H](O)C(F)(F)F)ccc1Oc1ccc(F)c(F)c1 [Compound E121],708
15,CCN(C[C@@H](O)C(F)(F)F)C(=O)Nc1ccc(OCc2cccc(F)c2)cn1 [Compound E138],871
16,"CC1(C)C(C(=O)Nc2ccc(-c3ccno3)cn2)C1(C)C [Compound E274, N-(5-isoxazol-5-yl-2-pyridyl)-2,2,3,3-tetramethyl-cyclopropanecarboxamide]",20.4
17,CC(C)C(=O)Nc1ccc(Oc2cncc(F)c2)cn1 [Compound E051],3980
18,"CC(C)C(=O)Nc1ccc(Nc2ccccc2)cn1 [Compound E094, N-(5-anilino-2-pyridyl)-2-methyl-propanamide]",3980
19,CC1(C)C(C(=O)Nc2cnc(Oc3ccc(F)c(F)c3)cn2)C1(C)C [Compound E224],3.98
20,CC(C)C(=O)Nc1ccc(Oc2ccccc2F)cn1 [Compound E005],79.4
21,CC1(C)C(C(=O)Nc2ccc(N3CCCC3)cn2)C1(C)C [Compound E097],2.51
22,CCN(C[C@@H](O)C(F)(F)F)C(=O)Nc1ccc(Oc2cccc(F)c2C#N)cn1 [Compound E128],120
23,CC1(C)C(C(=O)Nc2cc3c(cn2)OCCO3)C1(C)C [Compound E216],331
24,CC1(C)CC1C(=O)Nc1ccc(Oc2ccc(F)c(F)c2)cn1 (centres unmarked) [Compound E029],3.98
25,"Cc1nc(-c2ccc(NC(=O)C3C(C)(C)C3(C)C)nc2)no1 [Compound E272, 2,2,3,3-tetramethyl-N-[5-(5-methyl-1,2,4-oxadiazol-3-yl)-2-pyridyl]cyclopropanecarboxamide]",8.51

# The next lines start with the values.
row,IC50 [nM],Compound
1,589,NS(=O)(=O)N1CCC[C@@H]1C(=O)Nc1ccc(Oc2cc(F)ccc2F)cn1 [Compound E280]
2,63.1,CC(C)C(=O)Nc1ccc(-c2cccc(F)c2)cn1 [Compound E166]
3,2000,COc1ccccc1-c1ccc(NC(=O)C(C)C)nc1 [Compound E169]
4,8.51,CCN(C[C@@H](O)C(F)(F)F)C(=O)Nc1cnc(Oc2ccccc2F)cn1 [Compound E248]
5,2140,CCN(C[C@@H](O)C(F)(F)F)C(=O)Nc1cnc(Oc2cccc(C#N)c2F)cn1 [Compound E246]
6,1200,CCN(C[C@@H](O)C(F)(F)F)C(=O)Nc1ccc(-c2cc(F)cc(C#N)c2)cn1 [Compound E192]
7,251,"CC(C)C(=O)Nc1ccc(-c2ccccc2)cn1 [Compound E164, 2-methyl-N-(5-phenyl-2-pyridyl)propanamide]"
8,17.8,CCN(C[C@@H](O)C(F)(F)F)C(=O)Nc1cc(Oc2ccccc2C#N)ccn1 [Compound E158]
9,295,CCN(C[C@@H](O)C(F)(F)F)C(=O)Nc1cnc(Oc2ccc(F)cc2C(F)(F)F)cn1 [Compound E264]
10,1550,CCN(C[C@@H](O)C(F)(F)F)C(=O)Nc1cc(Oc2cccc(C#N)c2)ccn1 [Compound E156]
11,302,CCN(C[C@@H](O)C(F)(F)F)C(=O)Nc1cnc(Oc2cccc(F)c2)cn1 [Compound E247]
12,692,"CCN(C[C@@H](O)C(F)(F)F)C(=O)Nc1cc(Oc2ccccc2F)ncn1 [Compound E290, 1-ethyl-3-[6-(2-fluorophenoxy)pyrimidin-4-yl]-1-[(2R)-3,3,3-trifluoro-2-hydroxy-propyl]urea]"
13,1910,"NS(=O)(=O)N1CCC[C@@H]1C(=O)Nc1ccc(Oc2ccc(F)c(F)c2)cn1 [Compound E277, (2R)-N-[5-(3,4-difluorophenoxy)-2-pyridyl]-1-sulfamoyl-pyrrolidine-2-carboxamide]"
14,2.57,CN(C[C@@](C)(O)C(F)(F)F)C(=O)Nc1cnc(Oc2cc(F)ccc2F)cn1 [Compound E250]
15,7940,CC(C)C(=O)Nc1cc(-c2ccccc2)ccn1 [Compound E168]
16,26.9,CCN(C[C@@H](O)C(F)(F)F)C(=O)Nc1cnc(Oc2cccc(F)c2C#N)cn1 [Compound E251]
17,27.5,C[C@]1(C(=O)Nc2ccc(Oc3cc(F)cc(F)c3)cn2)CCCN1S(N)(=O)=O [Compound E282]
18,42.7,CN(C[C@@](C)(O)C(F)(F)F)C(=O)Nc1cc(Oc2cccc(F)c2)ccn1 [Compound E160]
19,19.5,CC1(C)CC1C(=O)Nc1ccc(-c2cccc(F)c2F)cn1 (centres unmarked) [Compound E183]
20,6310,"CC(C)C(=O)Nc1ccc(C2CCCC2)cn1 [Compound E177, N-(5-cyclopentyl-2-pyridyl)-2-methyl-propanamide]"
21,1.7,CCN(C[C@@](C)(O)C(F)(F)F)C(=O)Nc1cnc(Oc2cc(F)ccc2F)cn1 [Compound E259]
22,25.1,CC1(C)CC1C(=O)Nc1ccc(-c2cc(F)ccc2F)cn1 (centres unmarked) [Compound E182]
23,501,CC(C)C(=O)Nc1ccc(Cc2ccccc2F)cn1 [Compound E268]
